Consider 16 compounds from ChEMBL document CHEMBL2074222, “Transport properties of nonsteroidal anti-inflammatory drugs by organic anion transporter 1 expressed in Xenopus laevis oocytes” (Mol Pharmacol, 1999).

SMILES strings stand for the structures.

Type in all cases: functional, cell-based, Oocyte
Data set [1] addresses T1, Solute carrier family 22 member 6 (Rattus norvegicus, UniProt O35956).
T1 sequence (O35956 whole entry): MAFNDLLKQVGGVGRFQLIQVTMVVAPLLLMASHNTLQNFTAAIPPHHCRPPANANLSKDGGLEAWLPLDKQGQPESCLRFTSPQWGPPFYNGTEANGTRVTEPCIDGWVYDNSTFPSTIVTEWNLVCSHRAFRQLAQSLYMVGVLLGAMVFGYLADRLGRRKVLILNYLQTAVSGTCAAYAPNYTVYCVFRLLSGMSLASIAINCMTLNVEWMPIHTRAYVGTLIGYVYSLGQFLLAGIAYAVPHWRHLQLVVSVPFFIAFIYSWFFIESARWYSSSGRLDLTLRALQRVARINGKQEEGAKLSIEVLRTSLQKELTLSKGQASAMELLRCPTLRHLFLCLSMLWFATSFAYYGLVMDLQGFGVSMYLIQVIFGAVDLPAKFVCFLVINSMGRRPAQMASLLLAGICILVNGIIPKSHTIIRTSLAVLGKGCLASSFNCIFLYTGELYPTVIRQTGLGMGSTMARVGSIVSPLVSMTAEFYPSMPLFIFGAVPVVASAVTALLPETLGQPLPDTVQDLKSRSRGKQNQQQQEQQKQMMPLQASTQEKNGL
Kind of data set: TP_TRANSPORTER: inhibition of PAH uptake in Xenopus laevis oocytes.

Data set [2] concerns the target T2, Solute carrier family 22 member 6 (SLC22A6) (Rattus norvegicus, UniProt O35956).
T2 sequence (O35956 whole entry): T1 sequence (O35956 whole entry)
Kind of data set: TP_TRANSPORTER: inhibition of PAH uptake (PAH: 2 uM, […]: 1000 uM) in Xenopus laevis oocytes. The following applies: probe PAH.

The target of data set [3] is T2, Solute carrier family 22 member 6 (SLC22A6). Kind of data set: TP_TRANSPORTER: inhibition of PAH uptake (PAH: 2 uM, Antipyrine: 1000 uM) in Xenopus laevis oocytes. The following applies: probe PAH.
Data set [4] has the same target. Kind of data set: TP_TRANSPORTER: inhibition of PAH uptake (PAH: 2 uM, Benzydamine: 1000 uM) in Xenopus laevis oocytes. The following applies: probe PAH.
The target is the same in data set [5]. Kind of data set: TP_TRANSPORTER: inhibition of PAH uptake (PAH: 2 uM, Diclofenac: 1000 uM) in Xenopus laevis oocytes. The following applies: probe PAH.
Data set [6] shares this target. Kind of data set: TP_TRANSPORTER: inhibition of PAH uptake (PAH: 2 uM, Diflunisal: 1000 uM) in Xenopus laevis oocytes. The following applies: probe PAH.
Data set [7] has the same target. Kind of data set: TP_TRANSPORTER: inhibition of PAH uptake (PAH: 2 uM, Flurbiprofen: 1000 uM) in Xenopus laevis oocytes. The following applies: probe PAH.
For data set [8] the target is unchanged. Kind of data set: TP_TRANSPORTER: inhibition of PAH uptake (PAH: 2 uM, Ketoprofen: 1000 uM) in Xenopus laevis oocytes. The following applies: probe PAH.
Data set [9] shares this target. Kind of data set: TP_TRANSPORTER: inhibition of PAH uptake (PAH: 2 uM, Meclofenamate: 1000 uM) in Xenopus laevis oocytes. The following applies: probe PAH.
The target is the same in data set [10]. Kind of data set: TP_TRANSPORTER: inhibition of PAH uptake (PAH: 2 uM, Phenylbutazone: 1000 uM) in Xenopus laevis oocytes. The following applies: probe PAH.
For data set [11] the target is unchanged. Kind of data set: TP_TRANSPORTER: inhibition of PAH uptake (PAH: 2 uM, Tolmetin: 1000 uM) in Xenopus laevis oocytes. The following applies: probe PAH.

Turning to `CC(=O)Nc1ccc(O)cc1` [ACETAMINOPHEN], in data set [1], the Ki – broadly, the dissociation constant of the complex between target and ligand, obtained from inhibition or displacement – was found to be 2100 µM.
Consider `Cc1c(N(C)C)c(=O)n(-c2ccccc2)n1C` [AMINOPYRINE], for which, in [2], the inhibition (as a rule, how much of the control response was suppressed) at 1000 µM was 23.8%.
The compound `Cc1cc(=O)n(-c2ccccc2)n1C` [ANTIPYRINE] yielded an inhibition at 1000 µM in data set [3] of 37.8%.
`NCc1ccccc1` [BENZYLAMINE] showed an inhibition at 1000 µM in data set [4] of 60%.
With `O=C(O)Cc1ccccc1Nc1c(Cl)cccc1Cl` [DICLOFENAC], in data set [5], 1000 µM produced 100% inhibition.
With `O=C(O)c1cc(-c2ccc(F)cc2F)ccc1O` [DIFLUNISAL], in [6], the inhibition at 1000 µM was 100%.
Compound `CC(C(=O)O)c1ccc(-c2ccccc2)c(F)c1` (stereo unspecified) [FLURBIPROFEN] had an inhibition at 1000 µM in data set [7] of 100%.
`COc1ccc2c(c1)c(CC(=O)O)c(C)n2C(=O)c1ccc(Cl)cc1` [INDOMETHACIN] registered a Ki in data set [1] of 10 µM.
In [8], `CC(C(=O)O)c1cccc(C(=O)c2ccccc2)c1` (stereo unspecified) [KETOPROFEN] came in with an inhibition at 1000 µM of 100%.
In turn, `Cc1ccc(Cl)c(Nc2ccccc2C(=O)O)c1Cl` [MECLOFENAMIC ACID] had an inhibition at 1000 µM in data set [9] of 99.8%.
As for `COc1ccc2cc([C@H](C)C(=O)O)ccc2c1` [NAPROXEN], the affinity in data set [1], expressed as Ki, was 2 µM.
Still for that read-out and setting: the result for `CCCCC1C(=O)N(c2ccccc2)N(c2ccc(O)cc2)C1=O` (stereo unspecified) [OXYPHENBUTAZONE ANHYDROUS] reads 32 µM.
Same read-out and setting: the result for `CCOc1ccc(NC(C)=O)cc1` [PHENACETIN] reads 488 µM.
Take `CCCCC1C(=O)N(c2ccccc2)N(c2ccccc2)C1=O` [PHENYLBUTAZONE]: in [10], testing at 1000 µM gave an inhibition of 98.8%.
Turning to `O=C(O)CNC(=O)c1ccccc1O` [SALICYLURIC ACID], the affinity in data set [1], expressed as Ki, was 11 µM.
In data set [11], `Cc1ccc(C(=O)c2ccc(CC(=O)O)n2C)cc1` [TOLMETIN] returned an inhibition at 1000 µM of 99.5%.
